Test results taken from ChEMBL document CHEMBL4842375, “Discovery of a Potent Glutathione Peroxidase 4 Inhibitor as a Selective Ferroptosis Inducer” (J Med Chem, 2021).
The source made the active and inactive calls. The rule behind the calls is not given here.

How the values were obtained:
MCF7 = assay: Cytotoxicity against human MCF7 cells assessed as reduction in cell viability incubated for 48 hrs by MTT assay; assay type: functional, cell-based; settings: MCF7, 48 h
4T1 [1] = assay: Cytotoxicity against mouse 4T1 cells assessed as reduction in cell viability incubated for 48 hrs by MTT assay; assay type: functional, cell-based; settings: 4T1, 48 h
HT-1080 [2] = assay: Cytotoxicity against human HT-1080 cells assessed as reduction in cell viability incubated for 48 hrs in presence of Fer-1 by MTT assay; assay type: functional, cell-based; settings: HT-1080, 48 h
HT-1080 [3] = assay: Cytotoxicity against human HT-1080 cells assessed as reduction in cell viability incubated for 48 hrs by MTT assay; assay type: functional, cell-based; settings: HT-1080, 48 h
[4] = Selectivity index, ratio of IC50 for cytotoxicity against human HT-1080 cells in presence of Fer-1 to IC50 for cytotoxicity against human HT-1080 cells; assay type: functional
4T1 [5] = assay: Effect on intracellular GSH level in mouse 4T1 cells assessed as reduction in GSH level; assay type: functional, cell-based
[6] = molecular target: T1, Phospholipid hydroperoxide glutathione peroxidase GPX4 (Homo sapiens) (UniProt P36969); assay: Inhibition of GPX4 in mouse 4T1 cells assessed as decrease in intracellular GPX4 activity at 5 uM after 6 hrs; assay type: cell-based
T1 sequence (whole entry): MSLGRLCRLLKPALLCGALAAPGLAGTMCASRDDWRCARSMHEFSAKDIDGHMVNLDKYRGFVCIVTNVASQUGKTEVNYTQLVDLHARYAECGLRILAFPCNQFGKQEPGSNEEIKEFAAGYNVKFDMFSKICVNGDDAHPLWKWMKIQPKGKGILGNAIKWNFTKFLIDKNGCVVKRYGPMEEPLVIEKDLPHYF

Structure (SMILES): CCOC(=O)c1ccc(CN(C(=O)CCl)C(C(=O)NC(C)(C)C)c2c[nH]c3ccccc23)cc1 (stereo not drawn)
- IC50 (MCF7): 15.5 µM
- IC50 (4T1 [1]): 9430 nM
- IC50 (HT-1080 [2]): 16 µM
- IC50 (HT-1080 [3]): 16000 nM
- Ratio IC50 [4]: 1

Structure (SMILES): Cc1noc(-c2ccc(N(C(=O)CCl)C(C(=O)NCCc3ccccc3)c3c[nH]c4ccccc34)cc2)n1 (stereo not drawn)
- IC50 (MCF7): 13.2 µM
- IC50 (4T1 [1]): 1940 nM
- IC50 (HT-1080 [2]): 4.21 µM
- IC50 (HT-1080 [3]): 330 nM
- Ratio IC50 [4]: 12.8

Structure (SMILES): CCOC(=O)c1ccc(N(C(=O)CCl)C(C(=O)NC2CCCCC2)c2c[nH]c3ccccc23)cc1 (stereo not drawn)
- IC50 (MCF7): 9.01 µM
- IC50 (4T1 [1]): 4630 nM
- IC50 (HT-1080 [2]): 3.45 µM
- IC50 (HT-1080 [3]): 930 nM
- Ratio IC50 [4]: 3.7

Structure (SMILES): CCOC(=O)c1ccc(N(C(=O)CCl)C(C(=O)NCCc2ccccc2)c2cc[nH]n2)cc1 (stereo not drawn)
- IC50 (MCF7): 15.2 µM
- IC50 (4T1 [1]): 4470 nM
- IC50 (HT-1080 [2]): 4.3 µM
- IC50 (HT-1080 [3]): 700 nM
- Ratio IC50 [4]: 6.1

Structure (SMILES): CCOC(=O)c1ccc(N(C(=O)CCl)C(C(=O)NCCc2ccccc2Cl)c2c[nH]c3ccccc23)cc1 (stereo not drawn)
- IC50 (MCF7): 13.4 µM
- IC50 (4T1 [1]): 2310 nM
- IC50 (HT-1080 [2]): 3.21 µM
- IC50 (HT-1080 [3]): 890 nM
- Ratio IC50 [4]: 3.6

Structure (SMILES): O=C(NCCc1ccccc1)C(c1csc2ccccc12)N(C(=O)CCl)c1ccc(-c2nnco2)cc1 (stereo not drawn)
- IC50 (MCF7): 7.06 µM
- IC50 (4T1 [1]): 810 nM
- IC50 (HT-1080 [2]): 3.9 µM
- IC50 (HT-1080 [3]): 200 nM
- Ratio IC50 [4]: 19.5

Structure (SMILES): CCOC(=O)c1ccc(N(C(=O)CCl)C(C(=O)NC(C)(C)C)c2c[nH]c3ccccc23)cc1 (stereo not drawn)
- IC50 (MCF7): 12.1 µM
- IC50 (4T1 [1]): 3220 nM
- IC50 (HT-1080 [2]): 4.2 µM
- IC50 (HT-1080 [3]): 430 nM
- Ratio IC50 [4]: 9.8

Structure (SMILES): C=CCNC(=O)C(c1c[nH]c2ccccc12)N(C(=O)CCl)c1ccc(C(=O)OCC)cc1 (stereo not drawn)
- IC50 (MCF7): 12.6 µM
- IC50 (4T1 [1]): 2150 nM
- IC50 (HT-1080 [2]): 4.57 µM
- IC50 (HT-1080 [3]): 740 nM
- Ratio IC50 [4]: 6.2

Structure (SMILES): CCOC(=O)c1ccc(N(C(=O)CCl)C(C(=O)NCc2ccccc2)c2c[nH]c3ccccc23)cc1 (stereo not drawn)
- IC50 (MCF7): 11.9 µM
- IC50 (4T1 [1]): 4920 nM
- IC50 (HT-1080 [2]): 6.4 µM
- IC50 (HT-1080 [3]): 1100 nM
- Ratio IC50 [4]: 5.8

Structure (SMILES): CCOC(=O)c1ccc(N(C(=O)CCl)C(C(=O)NCCc2ccccc2)c2c[nH]c3ccccc23)cc1 (stereo not drawn)
- IC50 (MCF7): 8.71 µM
- IC50 (4T1 [1]): 1930 nM
- IC50 (HT-1080 [2]): 4.43 µM
- IC50 (HT-1080 [3]): 300 nM
- Ratio IC50 [4]: 14.7

Structure (SMILES): CCOC(=O)c1ccc(CN(C(=O)CCl)C(C(=O)NCc2ccccc2)c2c[nH]c3ccccc23)cc1 (stereo not drawn)
- IC50 (MCF7): 20.4 µM
- IC50 (4T1 [1]): 9910 nM
- IC50 (HT-1080 [2]): 4.9 µM
- IC50 (HT-1080 [3]): 3000 nM
- Ratio IC50 [4]: 1.63

Structure (SMILES): CCOC(=O)c1ccc(N(C(=O)CCl)C(C(=O)NCCc2ccc(Cl)cc2)c2c[nH]c3ccccc23)cc1 (stereo not drawn)
- IC50 (MCF7): 16.3 µM
- IC50 (4T1 [1]): 2070 nM
- IC50 (HT-1080 [2]): 4.31 µM
- IC50 (HT-1080 [3]): 430 nM
- Ratio IC50 [4]: 10

Structure (SMILES): COC(=O)c1ccc([C@H]2c3[nH]c4ccccc4c3C[C@H](C(=O)OC)N2C(=O)CCl)cc1
- IC50 (MCF7): 13.6 µM
- IC50 (4T1 [1]): 3690 nM
- IC50 (HT-1080 [2]): 3.7 µM
- IC50 (HT-1080 [3]): 1200 nM
- Activity (4T1 [5]): inactive
- inhibition [6]: 11.8%
- Ratio IC50 [4]: 3.1

Structure (SMILES): COc1ccc(N(C(=O)CCl)C(C(=O)NCCc2ccccc2)c2c[nH]c3ccccc23)cc1 (stereo not drawn)
- IC50 (MCF7): 15.3 µM
- IC50 (4T1 [1]): 9720 nM

Structure (SMILES): CCOC(=O)c1ccc(N(C(=O)CCl)C(C(=O)NCCc2ccccc2)c2c[nH]c3ncccc23)cc1 (stereo not drawn)
- IC50 (MCF7): 6.85 µM
- IC50 (4T1 [1]): 9300 nM
- IC50 (HT-1080 [2]): 5.3 µM
- IC50 (HT-1080 [3]): 3200 nM
- Ratio IC50 [4]: 1.7

Structure (SMILES): O=C(NCCc1ccccc1)C(c1c[nH]c2ccccc12)N(C(=O)CCl)c1ccc(-c2nnco2)cc1 (stereo not drawn)
- IC50 (MCF7): 5.92 µM
- IC50 (4T1 [1]): 890 nM
- IC50 (HT-1080 [2]): 4.52 µM
- IC50 (HT-1080 [3]): 350 nM
- Ratio IC50 [4]: 12.9

Structure (SMILES): CCOC(=O)c1ccc(N(C(=O)CCl)C(C(=O)NCCc2cccc(OC)c2)c2c[nH]c3ccccc23)cc1 (stereo not drawn)
- IC50 (MCF7): 11.3 µM
- IC50 (4T1 [1]): 2350 nM
- IC50 (HT-1080 [2]): 4.88 µM
- IC50 (HT-1080 [3]): 410 nM
- Ratio IC50 [4]: 11.9

Structure (SMILES): CCOC(=O)c1ccc(N(C(=O)CCl)C(C(=O)NCCc2cccc(C(F)(F)F)c2)c2c[nH]c3ccccc23)cc1 (stereo not drawn)
- IC50 (MCF7): 10.3 µM
- IC50 (4T1 [1]): 2170 nM
- IC50 (HT-1080 [2]): 5.03 µM
- IC50 (HT-1080 [3]): 560 nM
- Ratio IC50 [4]: 9

Structure (SMILES): COc1ccc(N(C(=O)CCl)C(C(=O)NCCc2ccccc2)c2cccs2)cc1Cl (stereo not drawn)
- IC50 (MCF7): 10.1 µM
- IC50 (4T1 [1]): 2520 nM
- IC50 (HT-1080 [2]): 7.31 µM
- IC50 (HT-1080 [3]): 660 nM
- Ratio IC50 [4]: 11.1

Structure (SMILES): N#Cc1ccc(N(C(=O)CCl)C(C(=O)NCCc2ccccc2)c2c[nH]c3ccccc23)cc1 (stereo not drawn)
- IC50 (MCF7): 6.85 µM
- IC50 (4T1 [1]): 9300 nM
- IC50 (HT-1080 [2]): 4.2 µM
- IC50 (HT-1080 [3]): 750 nM
- Ratio IC50 [4]: 5.6

Structure (SMILES): O=C(NCCc1ccccc1)C(c1c[nH]c2ccccc12)N(C(=O)CCl)c1ccc(-c2cnco2)cc1 (stereo not drawn)
- IC50 (MCF7): 5.7 µM
- IC50 (4T1 [1]): 1040 nM
- IC50 (HT-1080 [2]): 3.92 µM
- IC50 (HT-1080 [3]): 160 nM
- Ratio IC50 [4]: 24.5

Structure (SMILES): O=C(NCCc1ccccc1)C(c1c[nH]c2ccccc12)N(C(=O)CCl)c1ccc(Br)cc1 (stereo not drawn)
- IC50 (MCF7): 10.9 µM
- IC50 (4T1 [1]): 6470 nM

Structure (SMILES): CCOC(=O)c1ccc(CN(C(=O)CCl)C(C(=O)NCCc2ccccc2)c2c[nH]c3ccccc23)cc1 (stereo not drawn)
- IC50 (MCF7): 14.8 µM
- IC50 (4T1 [1]): 5860 nM
- IC50 (HT-1080 [2]): 4.4 µM
- IC50 (HT-1080 [3]): 2300 nM
- Ratio IC50 [4]: 1.91

Structure (SMILES): O=C(NCCc1ccccc1)C(c1c[nH]c2ccccc12)N(C(=O)CCl)c1ccc(F)cc1 (stereo not drawn)
- IC50 (MCF7): 13.5 µM
- IC50 (4T1 [1]): 9210 nM

Structure (SMILES): CCOC(=O)c1ccc(N(C(=O)CCl)C(C(=O)NCCc2ccccc2)c2cccc3[nH]ccc23)cc1 (stereo not drawn)
- IC50 (MCF7): 14.8 µM
- IC50 (4T1 [1]): 2960 nM
- IC50 (HT-1080 [2]): 1.3 µM
- IC50 (HT-1080 [3]): 400 nM
- Ratio IC50 [4]: 3.2

Structure (SMILES): CCOC(=O)c1ccc(N(C(=O)CCl)C(C(=O)NCCc2cccc(Cl)c2)c2c[nH]c3ccccc23)cc1 (stereo not drawn)
- IC50 (MCF7): 9.26 µM
- IC50 (4T1 [1]): 1990 nM
- IC50 (HT-1080 [2]): 4.5 µM
- IC50 (HT-1080 [3]): 370 nM
- Ratio IC50 [4]: 12.2

Structure (SMILES): Cc1noc(-c2ccc(N(C(=O)CCl)C(C(=O)NCCc3ccccc3)c3csc4ccccc34)cc2)n1 (stereo not drawn)
- IC50 (MCF7): 8.28 µM
- IC50 (4T1 [1]): 750 nM
- IC50 (HT-1080 [2]): 3.5 µM
- IC50 (HT-1080 [3]): 210 nM
- Ratio IC50 [4]: 16.7

Structure (SMILES): CCOC(=O)c1ccc(N(C(=O)CCl)C(C(=O)NCCc2ccccc2)c2ccnn2C)cc1 (stereo not drawn)
- IC50 (MCF7): 8.97 µM
- IC50 (4T1 [1]): 10200 nM
- IC50 (HT-1080 [2]): 2.5 µM
- IC50 (HT-1080 [3]): 2100 nM
- Ratio IC50 [4]: 1.2

Structure (SMILES): CCOC(=O)c1ccc(N(C(=O)CCl)C(C(=O)NCCc2ccccc2)c2csc3ccccc23)cc1 (stereo not drawn)
- IC50 (MCF7): 12.5 µM
- IC50 (4T1 [1]): 1480 nM
- IC50 (HT-1080 [2]): 4.7 µM
- IC50 (HT-1080 [3]): 280 nM
- Ratio IC50 [4]: 16.8
